The values below come from patent US10590373B2, “Systems and methods for biomimetic fluid processing” (BRIGHAM AND WOMEN'S HOSPITAL, INC., priority 2014, dated 2020).

Structures are written as SMILES.

The test system of the experiment is mouse fetal liver culture-derived (mFLC) MKs. Briefly: shear-induced proPLT production and PLT release by MKs in the microfluidic device after drug incubation. Type of experiment: cell-based. The following applies: for PLT release: under both static and physiological shear conditions; for shear-induced proPLT production: physiological shear. The method, then: Devices were coated with a 0.22 μm filtered 10% BSA solution (Millipore, Billerica, Mass.) for 30 minutes to prevent direct cell contact with glass. Referring to FIG. 1, primary MKs and media were infused in the first inlet 118 and second inlet 122, respectively, at a rate of 12.5 μL/hour using a two-syringe microfluidic pump (Harvard Apparatus, Holliston, Mass.). When the first outlet 120 was closed, both input solutions were redirected toward the second outlet 124 causing primary MKs to trap.
For shear cultures, MKs were loaded onto ‘naked’ microfluidic devices (only BSA-coated), and the infusion rate was doubled incrementally from 12.5 μL/hr to 200 μL/hr over a 2 hour period. For static cultures, isolated MKs were pipetted into chambers formed by mounting a glass coverslide coated with 3% BSA onto a […] with a 1 cm hole and cultured for 24 hours. Both static and shear cultures were maintained at 37 degrees C. and 5 percent CO2 and examined on a Zeiss Axiovert 200 (Carl Zeiss, Thornwood, N.Y.) equipped with 10× (numerical aperature, 0.30) Plan-Neofluar air objective. Differential interference contrast (DIC) images were obtained using CCD camera (Hamamatsu Photonics, Boston, Mass.) at either 2 second (shear cultures) or 20 minute (static cultures) intervals. Images were analyzed using the Metamorph version 7.7.2.0 image analysis software (Molecular Devices, Sunnyvale, Calif., USA) and ImageJ software version 1.47p. ProPLT extension rates were determined manually for over 200 MKs from at least three independent samples. For PLT spreading experiments, effluent was collected from microfluidic devices after 2 hours and pipetted into uncoated static culture chambers, described above. PLTs were permitted to contact glass by gravity sedimentation and spreading was captured at 5 second intervals over a 5 minute period.
In vivo BM MKs extend proPLTs in the direction of blood flow and release PLTs, proPLTs, large cytoplasmic fragments (prePLTs), and even whole MKs into sinusoidal blood vessels which may be trapping in the pulmonary microvascular bed, or otherwise maturing in the circulation. To determine the effect of physiological shear on PLT production, mouse fetal liver culture-derived (mFLC) MKs were isolated on culture day 4 and characterized by size and ploidy before being infused into the microfluidic device (shown in FIG. 3A).
While shear rates were kept constant, proPLT extension rates varied at different positions along the shaft, predictive of a regulated cytoskeletal driven mechanism of proPLT elongation (shown in FIG. 4C). […]

With `CCCCCC[C@@H]([C@@H](C)O)n1cnc2c(N)ncnc21` (racemic) [EHNA], the PLT release entry (1 mM EHNA) is “inhibited”. The “shear-induced proPLT production” value (MKs incubated with 1 mM EHNA prior to infusion in microfluidic device) is given as “inhibit”.
As for `C/C1=C\[C@H](C)C[C@H](C)OC(=O)C[C@H](c2ccc(O)cc2)NC(=O)[C@@H](Cc2c(Br)[nH]c3ccccc23)N(C)C(=O)[C@H](C)NC(=O)[C@@H](C)C1` [Jas, Jasplankinolide], under “5 μM Jas”, the PLT release entry is given as “inhibited”. In addition, the “shear-induced proPLT production” value (MKs incubated with 5 μM Jas prior to infusion in microfluidic device) was “inhibit”.
